Measured values as given in patent EP0687685A1, “PHYSIOLOGICALLY ACTIVE PEPTIDE” (TEIJIN LIMITED, priority 1993, dated 1994).
Positions of bridges follow the written chain, without caps; N, C: chain ends. Residues, ends and D or L forms follow the SMILES beside them. Chains are numbered I, II in the order given. *: point of attachment. Mob = COc1ccc(C*)cc1; Acm = CC(=O)NC*

Assays:
human type II PLA₂ [1] = molecular target: T1, human type II PLA₂ (Homo sapiens, UniProt P14555); test: Inhibition of binding between heparin and human II-type PLA₂ (heparin-bound plate, biotinated PLA₂)
T1 construct: made in house; host or cells: Sf9 insect cells, baculovirus (AcNPV), vector pAcTJI1; purified from culture supernatant
T1 sequence (P14555 21-144): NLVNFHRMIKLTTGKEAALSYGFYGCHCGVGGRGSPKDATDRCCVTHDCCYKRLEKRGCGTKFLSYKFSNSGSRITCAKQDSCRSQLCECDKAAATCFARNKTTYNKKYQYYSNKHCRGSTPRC
Method: 500 µg of human type II (non-pancreatic) purified in Reference Example 1 was reacted with 2 ml of a solution of 5 mM sulfosuccinyl 6-(biotinamide hexose) in 0.1M NaHCO₃ at a room temperature for one hour, and the product was purified by a heparin Sepharose column to obtain biotinated human type II PLA₂.
50 µl of a phosphate buffered saline (PBS) containing 50 µg/ml poly-L-lysine was added to each well of a 96-well ELISA plate, and after incubation at room temperature for an hour, each well was twice washed with PBS, 50 µl of PBS solution containing 20 µg/ml heparin was added to each well, and a reaction was further carried out at a room temperature for an hour. Each well was twice washed with PBS, 200 µl of PBS solution containing 30 mg/ml bovine serum albumin (BSA) was added to each well, and after reaction at 37°C for an hour, the plate was stored at 4°C.
To each well of a peparin-bound plate prepared in Reference Example 3, 50 µl of a solution containing a peptide obtained in Examples 1 to 10 was added. After incubating at room temperature for 45 minutes, 50 µg/ml biotinated human II-type PLA₂ obtained in Example 2 was added thereon, and reaction was further carried out at room temperature for an hour. Each well was washed three times with PBS containing 0.05% Tween 20, 50 µl of a 3% BSA/PBS solution containing alkaline phosphatase-conjugated streptoavidin (Taga, ×2000 dilution) was added thereon, and a reaction was carried out at a room temperature for an hour. Each well was washed three times with PBS containing 0.05% Tween 20, 100 µl of a 1 mM p-nitrophenylphosphate/1M ethanolamine aqueous solution (pH 9.8) was added thereon, and a reaction was carried out at room temperature for an hour. Absorption of reaction mixture was measured at 405 nm using a microplate reader (Molecular Device Inc). A result is shown in Fig. 9, and IC₅₀ (µM) was also obtained.

human type II PLA₂ [2] = molecular target: T1, human type II PLA₂; test: Enzyme inhibition of human type II PLA₂ in the presence of heparin, radiolabeled synthetic phospholipid (method of Dole); assay type: biochemical; conditions: PLA₂ enzyme 200 ng/ml; for inhibition at 5 µg/mL / remaining activity at 5 µg/mL: peptide 5 µg/ml; for inhibition at 10 µg/mL / remaining activity at 10 µg/mL: peptide 10 µg/ml; for inhibition at 50 µg/mL / remaining activity at 50 µg/mL: peptide 50 µg/ml; for inhibition at 100 µg/mL / remaining activity at 100 µg/mL: peptide 100 µg/ml
human type II PLA₂ [3] = molecular target: T1, human type II PLA₂; test: Enzyme inhibition of human type II PLA₂ in the presence of heparin, radioactive phospholipid of E. coli origin; assay type: biochemical; conditions: heparin 10 µg/ml, PLA₂ enzyme 10 ng/ml
[4] = heparin 50 µg/ml, read-out: PLA₂enzyme activity (%)
[5] = heparin 10 µg/ml, read-out: PLA₂enzyme activity (%)

| SMILES | inhibition at 5 µg/mL (human type II PLA₂ [2]; heparin 50 µg/ml) | remaining activity at 5 µg/mL (human type II PLA₂ [2]; [4]) | inhibition at 10 µg/mL (human type II PLA₂ [2]; heparin 50 µg/ml) | remaining activity at 10 µg/mL (human type II PLA₂ [2]; [4]) | inhibition at 50 µg/mL (human type II PLA₂ [2]; heparin 50 µg/ml) | remaining activity at 50 µg/mL (human type II PLA₂ [2]; [4]) | inhibition at 100 µg/mL (human type II PLA₂ [2]; heparin 50 µg/ml) | remaining activity at 100 µg/mL (human type II PLA₂ [2]; [4]) | also measured |
| --- | --- | --- | --- | --- | --- | --- | --- | --- | --- |
| COc1ccc(CSC[C@H](NC(=O)CNC(=O)[C@H](CCCNC(=N)N)NC(=O)[C@@H](N)CCCCN)C(=O)NCC(=O)N[C@H](C(=O)N[C@@H](CCCCN)C(=O)N[C@@H](Cc2ccccc2)C(=O)N[C@@H](CC(C)C)C(=O)N[C@@H](CO)C(=O)N[C@@H](Cc2ccc(O)cc2)C(=O)N[C@@H](CCCCN)C(=O)N[C@@H](Cc2ccccc2)C(=O)N[C@@H](CO)C(=O)N[C@@H](CS)C(=O)O)[C@@H](C)O)cc1 [Peptide (1)] (H-KRGC(Mob)GTKFLSYKFSC-OH) | – | – | – | – | – | – | – | – | IC50 (human type II PLA₂ [1]): 1.4 µM |
| COc1ccc(CSC[C@H](NC(=O)CNC(=O)[C@H](CCCNC(=N)N)NC(=O)[C@@H](N)CCCCN)C(=O)NCC(=O)N[C@H](C(=O)N[C@@H](CCCCN)C(=O)N[C@@H](Cc2ccccc2)C(=O)N[C@@H](CC(C)C)C(=O)N[C@@H](CO)C(=O)N[C@@H](Cc2ccc(O)cc2)C(=O)N[C@@H](CCCCN)C(=O)N[C@@H](Cc2ccccc2)C(=O)N[C@@H](CO)C(=O)N[C@@H](CSSC[C@H](NC(=O)[C@H](CO)NC(=O)[C@H](Cc2ccccc2)NC(=O)[C@H](CCCCN)NC(=O)[C@H](Cc2ccc(O)cc2)NC(=O)[C@H](CO)NC(=O)[C@H](CC(C)C)NC(=O)[C@H](Cc2ccccc2)NC(=O)[C@H](CCCCN)NC(=O)[C@@H](NC(=O)CNC(=O)[C@H](CSCc2ccc(OC)cc2)NC(=O)CNC(=O)[C@H](CCCNC(=N)N)NC(=O)[C@@H](N)CCCCN)[C@@H](C)O)C(=O)O)C(=O)O)[C@@H](C)O)cc1 [Peptide (2)] (I: H-KRGC(Mob)GTKFLSYKFSC-OH / II: H-KRGC(Mob)GTKFLSYKFSC-OH; disulfide I:15-II:15) | 25% | 75% | 52% | 48% | 81% | 19% | 89% | 11% | – |
| COc1ccc(CSC[C@H](NC(=O)[C@H](CO)NC(=O)[C@H](Cc2ccccc2)NC(=O)[C@H](CCCCN)NC(=O)[C@H](Cc2ccc(O)cc2)NC(=O)[C@H](CO)NC(=O)[C@H](CC(C)C)NC(=O)[C@H](Cc2ccccc2)NC(=O)[C@H](CCCCN)NC(=O)[C@@H](NC(=O)CNC(=O)[C@H](CS)NC(=O)CNC(=O)[C@H](CCCNC(=N)N)NC(=O)[C@@H](N)CCCCN)[C@@H](C)O)C(=O)O)cc1 [Peptide (3)] (H-KRGCGTKFLSYKFSC(Mob)-OH) | – | – | – | – | – | – | – | – | IC50 (human type II PLA₂ [1]): 2.7 µM |
| CC(=O)NCSC[C@H](NC(=O)CNC(=O)[C@H](CCCNC(=N)N)NC(=O)[C@@H](N)CCCCN)C(=O)NCC(=O)N[C@H](C(=O)N[C@@H](CCCCN)C(=O)N[C@@H](Cc1ccccc1)C(=O)N[C@@H](CC(C)C)C(=O)N[C@@H](CO)C(=O)N[C@@H](Cc1ccc(O)cc1)C(=O)N[C@@H](CCCCN)C(=O)N[C@@H](Cc1ccccc1)C(=O)N[C@@H](CO)C(=O)N[C@@H](CSSC[C@H](NC(=O)[C@H](CO)NC(=O)[C@H](Cc1ccccc1)NC(=O)[C@H](CCCCN)NC(=O)[C@H](Cc1ccc(O)cc1)NC(=O)[C@H](CO)NC(=O)[C@H](CC(C)C)NC(=O)[C@H](Cc1ccccc1)NC(=O)[C@H](CCCCN)NC(=O)[C@@H](NC(=O)CNC(=O)[C@H](CSCNC(C)=O)NC(=O)CNC(=O)[C@H](CCCNC(=N)N)NC(=O)[C@@H](N)CCCCN)[C@@H](C)O)C(=O)O)C(=O)O)[C@@H](C)O [Peptide (11)] (I: H-KRGC(Acm)GTKFLSYKFSC-OH / II: H-KRGC(Acm)GTKFLSYKFSC-OH; disulfide I:15-II:15) | 43% | 57% | 63% | 37% | 78% | 22% | 82% | 18% | – |
| CC(=O)NCSC[C@H](NC(=O)[C@H](CO)NC(=O)[C@H](Cc1ccccc1)NC(=O)[C@H](CCCCN)NC(=O)[C@H](Cc1ccc(O)cc1)NC(=O)[C@H](CO)NC(=O)[C@H](CC(C)C)NC(=O)[C@H](Cc1ccccc1)NC(=O)[C@H](CCCCN)NC(=O)[C@@H](NC(=O)CNC(=O)[C@H](CSSC[C@H](NC(=O)CNC(=O)[C@H](CCCNC(=N)N)NC(=O)[C@@H](N)CCCCN)C(=O)NCC(=O)N[C@H](C(=O)N[C@@H](CCCCN)C(=O)N[C@@H](Cc1ccccc1)C(=O)N[C@@H](CC(C)C)C(=O)N[C@@H](CO)C(=O)N[C@@H](Cc1ccc(O)cc1)C(=O)N[C@@H](CCCCN)C(=O)N[C@@H](Cc1ccccc1)C(=O)N[C@@H](CO)C(=O)N[C@@H](CSCNC(C)=O)C(=O)O)[C@@H](C)O)NC(=O)CNC(=O)[C@H](CCCNC(=N)N)NC(=O)[C@@H](N)CCCCN)[C@@H](C)O)C(=O)O [Peptide (13)] (I: H-KRGCGTKFLSYKFSC(Acm)-OH / II: H-KRGCGTKFLSYKFSC(Acm)-OH; disulfide I:4-II:4) | 42% | 58% | 62% | 38% | 81% | 19% | 86% | 14% | – |
| CC(C)C[C@@H]1NC(=O)[C@H](Cc2ccccc2)NC(=O)[C@H](CCCCN)NC(=O)[C@H]([C@@H](C)O)NC(=O)CNC(=O)[C@@H](NC(=O)CNC(=O)[C@H](CCCNC(=N)N)NC(=O)[C@@H](N)CCCCN)CSSC[C@H](NC(=O)CNC(=O)[C@H](CCCNC(=N)N)NC(=O)[C@@H](N)CCCCN)C(=O)NCC(=O)N[C@@H]([C@@H](C)O)C(=O)N[C@@H](CCCCN)C(=O)N[C@@H](Cc2ccccc2)C(=O)N[C@@H](CC(C)C)C(=O)N[C@@H](CO)C(=O)N[C@@H](Cc2ccc(O)cc2)C(=O)N[C@@H](CCCCN)C(=O)N[C@@H](Cc2ccccc2)C(=O)N[C@@H](CO)C(=O)N[C@H](C(=O)O)CSSC[C@@H](C(=O)O)NC(=O)[C@H](CO)NC(=O)[C@H](Cc2ccccc2)NC(=O)[C@H](CCCCN)NC(=O)[C@H](Cc2ccc(O)cc2)NC(=O)[C@H](CO)NC1=O [Peptide (16)] (I: H-KRGCGTKFLSYKFSC-OH / II: H-KRGCGTKFLSYKFSC-OH; disulfide I:4-II:4, I:15-II:15) | 59% | 41% | 72% | 28% | 82% | 18% | 90% | 10% | inhibition at 1 µg/mL (human type II PLA₂ [3]; peptide 1 µg/ml): 88%; remaining activity at 1 µg/mL (human type II PLA₂ [3]; peptide 1 µg/ml): 12%; inhibition at 5 µg/mL (human type II PLA₂ [3]; peptide 5 µg/ml): 97%; remaining activity at 5 µg/mL (human type II PLA₂ [3]; peptide 5 µg/ml): 3%; inhibition at 10 µg/mL (human type II PLA₂ [3]; peptide 10 µg/ml): 98%; remaining activity at 10 µg/mL (human type II PLA₂ [3]; peptide 10 µg/ml): 2% |
| CC(C)C[C@@H]1NC(=O)[C@H](Cc2ccccc2)NC(=O)[C@H](CCCCN)NC(=O)[C@H]([C@@H](C)O)NC(=O)CNC(=O)[C@@H](NC(=O)CNC(=O)[C@H](CCCNC(=N)N)NC(=O)[C@@H](N)CCCCN)CSSC[C@@H](C(=O)O)NC(=O)[C@H](CO)NC(=O)[C@H](Cc2ccccc2)NC(=O)[C@H](CCCCN)NC(=O)[C@H](Cc2ccc(O)cc2)NC(=O)[C@H](CO)NC(=O)[C@H](CC(C)C)NC(=O)[C@H](Cc2ccccc2)NC(=O)[C@H](CCCCN)NC(=O)[C@H]([C@@H](C)O)NC(=O)CNC(=O)[C@@H](NC(=O)CNC(=O)[C@H](CCCNC(=N)N)NC(=O)[C@@H](N)CCCCN)CSSC[C@@H](C(=O)O)NC(=O)[C@H](CO)NC(=O)[C@H](Cc2ccccc2)NC(=O)[C@H](CCCCN)NC(=O)[C@H](Cc2ccc(O)cc2)NC(=O)[C@H](CO)NC1=O [Peptide (17)] (I: H-KRGCGTKFLSYKFSC-OH / II: H-KRGCGTKFLSYKFSC-OH; disulfide I:4-II:15, I:15-II:4) | – | – | – | – | – | – | – | – | inhibition at 1 µg/mL (human type II PLA₂ [2]; peptide 1 µg/ml, heparin 10 µg/ml): 69%; remaining activity at 1 µg/mL (human type II PLA₂ [2]; peptide 1 µg/ml, heparin 10 µg/ml, read-out: PLA₂enzyme activity (%)): 31%; inhibition at 5 µg/mL (human type II PLA₂ [2]; heparin 10 µg/ml): 91%; remaining activity at 5 µg/mL (human type II PLA₂ [2]; [5]): 9%; inhibition at 10 µg/mL (human type II PLA₂ [2]; heparin 10 µg/ml): 94%; remaining activity at 10 µg/mL (human type II PLA₂ [2]; [5]): 6% |
